# Calls of active or inactive are those of the source. The rule behind the calls is not given here.
# How the values were obtained:
# Rattus norvegicus [1] = assay: Antiinflammatory activity in rat assessed as inhibition of carrageenan-induced paw edema at 50 mg/kg, po measured at 360 mins after carrageenan challenge by plethysmographic analysis; type: functional; details: 6 h
# Rattus norvegicus [2] = assay: Antiinflammatory activity in rat assessed as inhibition of carrageenan-induced paw edema at 50 mg/kg, po measured at 270 mins after carrageenan challenge by plethysmographic analysis; type: functional; details: 4.5 h
# Rattus norvegicus [3] = assay: Antiinflammatory activity in rat assessed as inhibition of carrageenan-induced paw edema at 50 mg/kg, po measured at 180 mins after carrageenan challenge by plethysmographic analysis; type: functional; details: 3 h
# Rattus norvegicus [4] = assay: Antiinflammatory activity in rat assessed as inhibition of carrageenan-induced paw edema at 50 mg/kg, po measured at 90 mins after carrageenan challenge by plethysmographic analysis; type: functional; details: 1.5 h
# Ovis aries = organism: Ovis aries; assay: Selectivity ratio of ovine COX1 to ovine COX2 at 20 uM
# [5] = biological target: T1, Prostaglandin G/H synthase 1 (Ovis aries) (UniProt P05979); assay: Inhibition of ovine COX1 peroxidase activity assessed as TMPD oxidation at 20 uM by colorimetric analysis
# T1 sequence (whole entry): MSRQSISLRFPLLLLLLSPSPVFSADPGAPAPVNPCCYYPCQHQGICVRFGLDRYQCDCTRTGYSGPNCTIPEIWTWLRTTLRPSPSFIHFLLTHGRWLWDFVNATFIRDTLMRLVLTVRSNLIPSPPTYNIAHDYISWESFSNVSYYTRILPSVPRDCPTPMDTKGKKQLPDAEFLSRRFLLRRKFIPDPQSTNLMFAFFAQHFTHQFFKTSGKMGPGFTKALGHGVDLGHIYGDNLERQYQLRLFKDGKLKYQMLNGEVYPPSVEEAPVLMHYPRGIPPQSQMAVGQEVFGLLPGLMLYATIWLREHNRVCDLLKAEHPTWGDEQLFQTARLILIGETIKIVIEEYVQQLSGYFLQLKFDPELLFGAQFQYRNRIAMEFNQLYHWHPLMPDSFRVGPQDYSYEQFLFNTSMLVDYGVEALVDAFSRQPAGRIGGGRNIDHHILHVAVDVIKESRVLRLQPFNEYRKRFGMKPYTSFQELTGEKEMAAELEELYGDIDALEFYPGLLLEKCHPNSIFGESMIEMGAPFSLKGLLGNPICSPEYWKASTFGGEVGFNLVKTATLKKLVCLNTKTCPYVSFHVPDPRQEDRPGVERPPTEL
Selectivity ratio (Ovis aries),inhibition [5],SMILES,inhibition in vivo at 50 mg/kg (Rattus norvegicus [1]) [%],inhibition in vivo at 50 mg/kg (Rattus norvegicus [2]) [%],inhibition in vivo at 50 mg/kg (Rattus norvegicus [3]) [%],inhibition in vivo at 50 mg/kg (Rattus norvegicus [4]) [%]
0.055,5%,CSc1ccc(C2Nc3ccccc3C(=O)N2c2ccc(Cl)cc2)cc1 (configuration not stated),47,46,41,38
> 0.01,inactive,Cc1ccc(N2C(=O)c3ccccc3NC2c2ccc(S(C)(=O)=O)cc2)cc1 (configuration not stated),40,39,35,34
> 0.001,inactive,CS(=O)(=O)c1ccc(C2Nc3ccccc3C(=O)N2c2ccc(Cl)cc2)cc1 (configuration not stated),51,46,42,37
0.577,41%,COc1ccc(N2C(=O)c3ccccc3NC2c2ccc(S(C)(=O)=O)cc2)cc1 (configuration not stated),49,47,43,39
> 0.001,inactive,CS(=O)(=O)c1ccc(C2Nc3ccccc3C(=O)N2c2ccc(F)cc2)cc1 (configuration not stated),48,45,43,38

# Second part, the molecule before the results:
SMILES,Selectivity ratio (Ovis aries),inhibition [5],inhibition in vivo at 50 mg/kg (Rattus norvegicus [1]) [%],inhibition in vivo at 50 mg/kg (Rattus norvegicus [2]) [%],inhibition in vivo at 50 mg/kg (Rattus norvegicus [3]) [%],inhibition in vivo at 50 mg/kg (Rattus norvegicus [4]) [%]
COc1ccc(N2C(=O)c3ccccc3NC2c2ccc(SC)cc2)cc1 (configuration not stated),,,40,38,35,33
CS(=O)(=O)c1ccc(C2Nc3ccccc3C(=O)N2c2ccccc2)cc1 (configuration not stated),0.742,49%,40,38,35,31
CSc1ccc(C2Nc3ccccc3C(=O)N2c2ccc(C)cc2)cc1 (configuration not stated),,,39,38,34,30
CSc1ccc(C2Nc3ccccc3C(=O)N2c2ccccc2)cc1 (configuration not stated),,,39,37,34,30
CSc1ccc(C2Nc3ccccc3C(=O)N2c2ccccc2F)cc1 (configuration not stated),,,41,39,37,33
CSc1ccc(C2Nc3ccccc3C(=O)N2c2ccc(F)cc2)cc1 (configuration not stated),,,44,42,39,32
CS(=O)(=O)c1ccc(C2Nc3ccccc3C(=O)N2c2ccccc2F)cc1 (configuration not stated),0.278,15%,44,42,39,36

# Reference: ChEMBL document CHEMBL2203087, “Analogue-based design, synthesis and docking of non-steroidal anti-inflammatory agents. Part 2: methyl sulfanyl/methyl sulfonyl substituted 2,3-diaryl-2,3-dihydro-1H-quinazolin-4-ones” (Bioorg Med Chem, 2012)
